Patent publication US6737383B1, “Herbicidal oxadiazolidines” (priority 1999, dated 2004)

How the values were obtained:
[1] = test system: rape; assay: Test E rape; type: in vivo, Brassica napus; settings: Postemergence
Summary of the method: (§1)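 Postemergence: spray at 1–4 leaf stage, soil 60:40 sandy loam:potting mix; solvent + surfactant formulation; greenhouse 21–28 d; visual injury vs untreated controls.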

[2] = test system: blackgrass; assay: Test E blackgrass; type: in vivo, Alopecurus myosuroides; settings: Postemergence
Procedure: (§2) Compounds evaluated in this test were formulated in a non-phytotoxic solvent mixture which included a surfactant and applied to plants that were in the 1- to 4-leaf stage (postemergence application). A mixture of sandy loam soil and greenhouse potting mix in a 60:40 ratio was used for the postemergence test.
(§3) Plantings of these crops and weed species were adjusted to produce plants of appropriate size for the postemergence test. All plant species were grown using normal greenhouse practices. Crop and weed species include annual bluegrass (Poa annua), blackgrass (Alopecurus myosuroides), black nightshade (Solanum nigra), chickweed (Stellaria media), common poppy (Papaver rhoeas), deadnettle (Lamium amplexicaule), downy brome (Bromus tectorum), field violet (Viola arvensis), galium (Galium aparine), green foxtail (Setaria viridis), Italian ryegrass (Lolium multiflorum), jointed goatgrass (Aegilops cylindrica), kochia (Kochia scoparia), lambsquarters (Chenopodium album), littleseed canarygrass (Phalaris minor), rape (Brassica napus), redroot pigweed (Amaranthus retroflexus), Russian thistle (Salsola kali), scentless chamomile (Matricaria inodora), spring barley (Hordeum vulgare), sugar beet (Beta vulgaris), sunflower (Helianthus annuus), ivyleaf speedwell (Veronica hederaefolia), spring wheat (Triticum aestivum), winter wheat (Triticum aestivum), wild buckwheat (Polygonum convolvulus), wild mustard (Sinapis arvensis), wild oat (Avena fatua), windgrass (Apera spica-venti) and winter barley (Hordeum vulgare).
(§4) Treated plants and untreated controls were maintained in a greenhouse for approximately 21 to 28 days, after which all treated plants were compared to untreated controls and visually evaluated. […] A dash response (-) means no test result.

[3] = test system: jointed goatgrass; assay: Test E jointed goatgrass; type: in vivo, Aegilops cylindrica; settings: Postemergence
Summary of the method: as §1

[4] = test system: redroot pigweed; assay: Test E redroot pigweed; type: in vivo, Amaranthus retroflexus; settings: Preemergence
[5] = test system: Russian thistle; assay: Test E Russian thistle; type: in vivo, Salsola kali; settings: Preemergence
[6] = test system: field violet; assay: Test E field violet; type: in vivo, Viola arvensis; settings: Preemergence
[7] = test system: galium; assay: Test E galium; type: in vivo, Galium aparine; settings: Preemergence
[8] = test system: ivyleaf speedwell; assay: Test E postemergence ivyleaf speedwell; type: in vivo, Veronica hederaefolia
Procedure: as §2, §3, §4

[9] = test system: annual bluegrass; assay: Test E annual bluegrass; type: in vivo, Poa annua; settings: Preemergence
[10] = test system: lambsquarters; assay: Test E lambsquarters; type: in vivo, Chenopodium album; settings: Preemergence
[11] = test system: field violet; assay: Test E field violet; type: in vivo, Viola arvensis; settings: Postemergence
Summary of the method: as §1

[12] = test system: Russian thistle; assay: Test E Russian thistle; type: in vivo, Salsola kali; settings: Postemergence
Procedure: […] A mixture of sandy loam soil and greenhouse potting mix in a 60:40 ratio was used for the postemergence test.
as §3, §4

[13] = test system: annual bluegrass; assay: Test E annual bluegrass; type: in vivo, Poa annua; settings: Postemergence
Summary of the method: as §1

[14] = test system: spring barley; assay: Test E spring barley; type: in vivo, Hordeum vulgare; settings: Postemergence
Procedure: as §2, §3, §4

[15] = test system: spring wheat; assay: Test E spring wheat; type: in vivo, Triticum aestivum; settings: Preemergence
[16] = test system: galium; assay: Test E galium; type: in vivo, Galium aparine; settings: Postemergence
Summary of the method: as §1

[17] = test system: Italian ryegrass; assay: Test E Italian ryegrass; type: in vivo, Lolium multiflorum; settings: Postemergence
Summary of the method: as §1

[18] = test system: windgrass; assay: Test E windgrass; type: in vivo, Apera spica-venti; settings: Preemergence
[19] = test system: deadnettle; assay: Test E deadnettle; type: in vivo, Lamium amplexicaule; settings: Postemergence
Procedure: as §2, §3, §4

[20] = test system: wild buckwheat; assay: Test E wild buckwheat; type: in vivo, Polygonum convolvulus; settings: Preemergence
[21] = test system: wild buckwheat; assay: Test E wild buckwheat; type: in vivo, Polygonum convolvulus; settings: Postemergence
Procedure: as §2, §3, §4

[22] = test system: lambsquarters; assay: Test E lambsquarters; type: in vivo, Chenopodium album; settings: Postemergence
Procedure: as §2, §3, §4

[23] = test system: scentless chamomile; assay: Test E scentless chamomile; type: in vivo, Matricaria inodora; settings: Postemergence
Procedure: as §2, §3, §4

[24] = test system: sunflower; assay: Test E sunflower; type: in vivo, Helianthus annuus; settings: Preemergence
[25] = test system: downy brome; assay: Test E downy brome; type: in vivo, Bromus tectorum; settings: Postemergence; for Plant response rating, Downy brome: 0 to 100 scale
Procedure: as §2, §3, §4

[26] = Rate 250 g/ha, 0 to 100 scale (0 no effect, 100 complete control)
[27] = Rate 62 g/ha, 0 to 100 scale, 0 no effect, 100 complete control
[28] = Rate 125 g/ha, 0 to 100 scale (0 no effect, 100 complete control)

SMILES: CCn1c(=O)on(C(=O)N(c2ccc(Cl)cc2)C(C)C)c1=O [Compound 108]
- Plant response rating, Rape ([1]; Rate 62 g/ha, 0 to 100 scale): 60
- Plant response rating, Rape ([1]; Rate 125 g/ha, 0 to 100 scale): 40
- Plant response rating, Rape [1, 26]: 50
- Plant response rating, Blackgrass ([2]; Rate 62 g/ha, 0 to 100 scale): 5
- Plant response rating, Blackgrass ([2]; Rate 125 g/ha, 0 to 100 scale): 5
- Plant response rating, Blackgrass [2, 26]: 10
- Plant response rating, Jointed goatgra ([3]; Rate 62 g/ha, 0 to 100 scale): 10
- Plant response rating, Jointed goatgra ([3]; Rate 125 g/ha, 0 to 100 scale): 10
- Plant response rating, Jointed goatgra [3, 26]: 10
- Plant response rating, Redroot pigweed [4, 27]: 70
- Plant response rating, Redroot pigweed [4, 28]: 90
- Plant response rating, Redroot pigweed ([4]; Rate 250 g/ha, 0 to 100 scale): 90
- Plant response rating, Russian thistle [5, 27]: 0
- Plant response rating, Russian thistle [5, 28]: 0
- Plant response rating, Russian thistle ([5]; Rate 250 g/ha, 0 to 100 scale): 15
- Plant response rating, Field violet [6, 27]: 15
- Plant response rating, Field violet [6, 28]: 0
- Plant response rating, Field violet ([6]; Rate 250 g/ha, 0 to 100 scale): 20
- Plant response rating, Galium [7, 27]: 95
- Plant response rating, Galium [7, 28]: 50
- Plant response rating, Galium ([7]; Rate 250 g/ha, 0 to 100 scale): 95
- Plant response rating, Veronica hedera ([8]; Rate 62 g/ha, 0 to 100 scale): 0
- Plant response rating, Veronica hedera ([8]; Rate 125 g/ha, 0 to 100 scale): 10
- Plant response rating, Veronica hedera [8, 26]: 40
- Plant response rating, Annual bluegras [9, 27]: 20
- Plant response rating, Annual bluegras [9, 28]: 60
- Plant response rating, Annual bluegras ([9]; Rate 250 g/ha, 0 to 100 scale): 60
- Plant response rating, Lambsquarters [10, 27]: 80
- Plant response rating, Lambsquarters [10, 28]: 100
- Plant response rating, Lambsquarters ([10]; Rate 250 g/ha, 0 to 100 scale): 90
- Plant response rating, Field violet ([11]; Rate 62 g/ha, 0 to 100 scale): 0
- Plant response rating, Field violet ([11]; Rate 125 g/ha, 0 to 100 scale): 0
- Plant response rating, Field violet [11, 26]: 20
- Plant response rating, Russian thistle ([12]; Rate 62 g/ha, 0 to 100 scale): 0
- Plant response rating, Russian thistle ([12]; Rate 125 g/ha, 0 to 100 scale): 0
- Plant response rating, Russian thistle [12, 26]: 0
- Plant response rating, Annual bluegras ([13]; Rate 62 g/ha, 0 to 100 scale): 0
- Plant response rating, Annual bluegras ([13]; Rate 125 g/ha, 0 to 100 scale): 15
- Plant response rating, Annual bluegras [13, 26]: 50
- Plant response rating, Spring Barley ([14]; Rate 62 g/ha, 0 to 100 scale): 10
- Plant response rating, Spring Barley ([14]; Rate 125 g/ha, 0 to 100 scale): 20
- Plant response rating, Spring Barley [14, 26]: 25
- Plant response rating, Spring Wheat [15, 27]: 10
- Plant response rating, Spring Wheat [15, 28]: 20
- Plant response rating, Spring Wheat ([15]; Rate 250 g/ha, 0 to 100 scale): 30
- Plant response rating, Galium ([16]; Rate 62 g/ha, 0 to 100 scale): 0
- Plant response rating, Galium ([16]; Rate 125 g/ha, 0 to 100 scale): 10
- Plant response rating, Galium [16, 26]: 50
- Plant response rating, I. Ryegrass ([17]; Rate 62 g/ha, 0 to 100 scale): 20
- Plant response rating, I. Ryegrass ([17]; Rate 125 g/ha, 0 to 100 scale): 5
- Plant response rating, I. Ryegrass [17, 26]: 40
- Plant response rating, Windgrass [18, 27]: 100
- Plant response rating, Windgrass [18, 28]: 100
- Plant response rating, Deadnettle ([19]; Rate 62 g/ha, 0 to 100 scale): 10
- Plant response rating, Deadnettle ([19]; Rate 125 g/ha, 0 to 100 scale): 20
- Plant response rating, Deadnettle [19, 26]: 30
- Plant response rating, Wild buckwheat [20, 27]: 60
- Plant response rating, Wild buckwheat [20, 28]: 100
- Plant response rating, Wild buckwheat ([20]; Rate 250 g/ha, 0 to 100 scale): 80
- Plant response rating, Wild buckwheat ([21]; Rate 62 g/ha, 0 to 100 scale): 0
- Plant response rating, Wild buckwheat ([21]; Rate 125 g/ha, 0 to 100 scale): 20
- Plant response rating, Wild buckwheat [21, 26]: 10
- Plant response rating, Lambsquarters ([22]; Rate 62 g/ha, 0 to 100 scale): 10
- Plant response rating, Lambsquarters ([22]; Rate 125 g/ha, 0 to 100 scale): 20
- Plant response rating, Lambsquarters [22, 26]: 20
- Plant response rating, Scentless chamo ([23]; Rate 62 g/ha, 0 to 100 scale): 10
- Plant response rating, Scentless chamo ([23]; Rate 125 g/ha, 0 to 100 scale): 0
- Plant response rating, Scentless chamo [23, 26]: 10
- Plant response rating, Sunflower [24, 27]: 0
- Plant response rating, Sunflower [24, 28]: 0
- Plant response rating, Sunflower ([24]; Rate 250 g/ha, 0 to 100 scale): 10
- Plant response rating, Downy brome ([25]; Rate 62 g/ha): 0
- Plant response rating, Downy brome ([25]; Rate 125 g/ha): 0
- Plant response rating, Downy brortie [25, 26]: 0
